Measured values: paper PMC7486443, “Generation of Phenothiazine with Potent Anti-TLK1 Activity for Prostate Cancer Therapy” (iScience, 2020)

Legend:
Assay in all cases: biochemical
Parameters in all cases: DiscoverX KINOMEscan scanMAX competition binding panel, single concentration, percent of control; remaining binding: dose or concentration left out as unconfirmed
Conditions in all cases: KINOMEscan binding, percent of control; read-out: Table S4_SCANMAX REPORT - related to Fig. 1 / Percent Control
PHKG1 = PHKG1 (Homo sapiens, UniProt Q16816)
From the text: (§1) Certain PTH are potent inhibitors of TLK1 ([Ronald et al., 2013]), and by inference TLK2, as these proteins must homo- and hetero-dimerize for full activation ([Mortuza et al., 2018]), in addition to being highly similar in sequence and structure, and thus similarly targetable. […] Two noteworthy observations are that PTHs are structurally different from many known ATP competitive inhibitors, and that J54 was carefully designed based on considerations reported previously for the THD—the Kinomescan has confirmed that J54 is specific to TLKs. We should point out that although PTH were the first reported inhibitors of TLKs ([Ronald et al., 2013]), other inhibitors particularly of TLK2 have since been reported ([Kim et al., 2016]), some based on structure docking ([Mortuza et al., 2018]), although neither their potency and effects in vivo nor their potential off-target effects have not been reported as they were selected from libraries of kinase inhibitors. Supplementary file mmc2.xlsx: Table S4. SCANMAX Table, Related to Figure 1 Kinomescan of J54 inhibitory activity on human kinases.

PIK3CA(C420R) = PIK3CA(C420R) (Homo sapiens, UniProt P42336, C420R)
From the text: as §1

CAMK1D = CAMK1D (Homo sapiens, UniProt Q8IU85)
From the text: as §1

YANK3 = molecular target: T1, YANK3 (Homo sapiens, UniProt Q86UX6)
T1 construct: gene STK32C
From the text: as §1

STK36 = STK36 (Homo sapiens, UniProt Q9NRP7)
From the text: as §1

TLK2 = TLK2 (Homo sapiens, UniProt Q86UE8)
From the text: as §1

[1] = molecular target: T2, RSK3(Kin.Dom.2-C-terminal) (Homo sapiens, UniProt Q15349)
T2 construct: gene RPS6KA2; Kin.Dom.2-C-terminal
From the text: as §1

GRK7 = GRK7 (Homo sapiens, UniProt Q8WTQ7)
From the text: as §1

PYK2 = molecular target: T3, PYK2 (Homo sapiens, UniProt Q14289)
T3 construct: gene PTK2B
From the text: as §1

NEK10 = NEK10 (Homo sapiens, UniProt Q6ZWH5)
From the text: as §1

PIK4CB = molecular target: T4, PIK4CB (Homo sapiens, UniProt Q9UBF8)
T4 construct: gene PI4KB
From the text: as §1

FAK = molecular target: T5, FAK (Homo sapiens, UniProt Q05397)
T5 construct: gene PTK2
From the text: as §1

TXK = TXK (Homo sapiens, UniProt P42681)
From the text: as §1

RIOK1 = RIOK1 (Homo sapiens, UniProt Q9BRS2)
From the text: as §1

TRPM6 = TRPM6 (Homo sapiens, UniProt Q9BX84)
From the text: as §1

DMPK = DMPK (Homo sapiens, UniProt Q09013)
From the text: as §1

NDR2 = molecular target: T6, NDR2 (Homo sapiens, UniProt Q9Y2H1)
T6 construct: gene STK38L
From the text: as §1

MAST1 = MAST1 (Homo sapiens, UniProt Q9Y2H9)
From the text: as §1

Sequence of RIOK1 (Q9BRS2 whole entry): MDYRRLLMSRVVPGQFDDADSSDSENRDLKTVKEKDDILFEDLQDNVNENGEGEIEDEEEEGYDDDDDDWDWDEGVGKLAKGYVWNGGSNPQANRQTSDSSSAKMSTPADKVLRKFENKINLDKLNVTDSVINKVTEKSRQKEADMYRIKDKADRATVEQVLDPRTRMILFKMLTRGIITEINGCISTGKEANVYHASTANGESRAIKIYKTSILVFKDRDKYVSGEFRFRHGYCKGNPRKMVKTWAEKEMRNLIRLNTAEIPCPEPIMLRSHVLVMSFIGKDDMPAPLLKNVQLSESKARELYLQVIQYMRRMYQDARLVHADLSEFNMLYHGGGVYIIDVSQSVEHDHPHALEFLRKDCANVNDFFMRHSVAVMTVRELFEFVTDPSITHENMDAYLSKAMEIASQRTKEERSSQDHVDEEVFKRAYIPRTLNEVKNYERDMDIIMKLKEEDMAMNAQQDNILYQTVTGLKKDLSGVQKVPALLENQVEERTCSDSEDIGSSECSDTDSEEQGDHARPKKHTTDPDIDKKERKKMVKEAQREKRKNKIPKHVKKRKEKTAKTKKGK
T3 sequence (Q14289 whole entry): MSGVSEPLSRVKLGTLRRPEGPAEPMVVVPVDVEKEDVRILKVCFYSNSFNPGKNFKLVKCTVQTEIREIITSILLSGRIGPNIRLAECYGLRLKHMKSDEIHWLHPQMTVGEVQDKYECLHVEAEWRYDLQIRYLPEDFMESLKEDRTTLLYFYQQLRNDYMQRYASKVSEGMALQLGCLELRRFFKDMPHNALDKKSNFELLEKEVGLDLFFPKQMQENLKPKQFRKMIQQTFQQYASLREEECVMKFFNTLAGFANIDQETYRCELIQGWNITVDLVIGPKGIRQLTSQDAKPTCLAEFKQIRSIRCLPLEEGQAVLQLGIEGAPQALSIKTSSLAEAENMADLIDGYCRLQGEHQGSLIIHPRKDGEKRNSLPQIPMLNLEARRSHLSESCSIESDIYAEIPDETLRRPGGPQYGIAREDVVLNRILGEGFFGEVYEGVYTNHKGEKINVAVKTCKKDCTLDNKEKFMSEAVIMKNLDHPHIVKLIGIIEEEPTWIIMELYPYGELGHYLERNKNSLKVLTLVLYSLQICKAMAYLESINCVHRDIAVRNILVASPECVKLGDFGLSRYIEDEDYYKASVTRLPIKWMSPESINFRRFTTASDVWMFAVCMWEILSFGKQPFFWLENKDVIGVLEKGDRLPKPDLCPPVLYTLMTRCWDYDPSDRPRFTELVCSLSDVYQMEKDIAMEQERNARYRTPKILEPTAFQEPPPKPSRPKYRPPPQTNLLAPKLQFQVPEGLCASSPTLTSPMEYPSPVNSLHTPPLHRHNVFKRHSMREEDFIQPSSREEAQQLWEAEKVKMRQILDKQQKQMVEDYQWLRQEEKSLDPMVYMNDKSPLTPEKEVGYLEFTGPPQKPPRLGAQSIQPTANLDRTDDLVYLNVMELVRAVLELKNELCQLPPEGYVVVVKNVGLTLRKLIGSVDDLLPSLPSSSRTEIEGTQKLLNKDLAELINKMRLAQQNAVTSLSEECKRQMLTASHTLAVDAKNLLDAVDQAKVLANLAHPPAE
T6 sequence (Q9Y2H1 whole entry): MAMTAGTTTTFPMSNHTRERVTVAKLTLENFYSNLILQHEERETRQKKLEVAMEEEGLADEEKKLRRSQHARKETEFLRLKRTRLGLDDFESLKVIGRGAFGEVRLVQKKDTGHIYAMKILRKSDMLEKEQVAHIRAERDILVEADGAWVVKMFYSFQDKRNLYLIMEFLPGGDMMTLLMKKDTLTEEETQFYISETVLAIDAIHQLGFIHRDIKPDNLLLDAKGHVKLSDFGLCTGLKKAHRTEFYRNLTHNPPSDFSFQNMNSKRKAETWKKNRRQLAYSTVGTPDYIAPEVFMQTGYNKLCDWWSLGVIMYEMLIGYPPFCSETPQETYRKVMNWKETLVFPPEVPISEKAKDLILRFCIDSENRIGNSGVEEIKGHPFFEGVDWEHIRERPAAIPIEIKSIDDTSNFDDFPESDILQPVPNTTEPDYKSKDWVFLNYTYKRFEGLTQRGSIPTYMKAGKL
Sequence of CAMK1D (Q8IU85 whole entry): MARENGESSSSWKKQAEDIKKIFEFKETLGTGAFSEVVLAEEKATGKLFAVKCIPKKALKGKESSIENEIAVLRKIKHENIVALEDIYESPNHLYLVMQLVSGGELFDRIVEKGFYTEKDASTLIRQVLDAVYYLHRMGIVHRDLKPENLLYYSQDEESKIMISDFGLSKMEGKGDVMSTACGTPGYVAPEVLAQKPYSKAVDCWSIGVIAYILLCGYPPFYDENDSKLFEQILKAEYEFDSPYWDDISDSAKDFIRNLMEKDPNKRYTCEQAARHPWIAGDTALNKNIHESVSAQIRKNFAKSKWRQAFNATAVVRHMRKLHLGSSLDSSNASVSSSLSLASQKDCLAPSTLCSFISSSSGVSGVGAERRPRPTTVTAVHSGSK
Sequence of MAST1 (Q9Y2H9 whole entry): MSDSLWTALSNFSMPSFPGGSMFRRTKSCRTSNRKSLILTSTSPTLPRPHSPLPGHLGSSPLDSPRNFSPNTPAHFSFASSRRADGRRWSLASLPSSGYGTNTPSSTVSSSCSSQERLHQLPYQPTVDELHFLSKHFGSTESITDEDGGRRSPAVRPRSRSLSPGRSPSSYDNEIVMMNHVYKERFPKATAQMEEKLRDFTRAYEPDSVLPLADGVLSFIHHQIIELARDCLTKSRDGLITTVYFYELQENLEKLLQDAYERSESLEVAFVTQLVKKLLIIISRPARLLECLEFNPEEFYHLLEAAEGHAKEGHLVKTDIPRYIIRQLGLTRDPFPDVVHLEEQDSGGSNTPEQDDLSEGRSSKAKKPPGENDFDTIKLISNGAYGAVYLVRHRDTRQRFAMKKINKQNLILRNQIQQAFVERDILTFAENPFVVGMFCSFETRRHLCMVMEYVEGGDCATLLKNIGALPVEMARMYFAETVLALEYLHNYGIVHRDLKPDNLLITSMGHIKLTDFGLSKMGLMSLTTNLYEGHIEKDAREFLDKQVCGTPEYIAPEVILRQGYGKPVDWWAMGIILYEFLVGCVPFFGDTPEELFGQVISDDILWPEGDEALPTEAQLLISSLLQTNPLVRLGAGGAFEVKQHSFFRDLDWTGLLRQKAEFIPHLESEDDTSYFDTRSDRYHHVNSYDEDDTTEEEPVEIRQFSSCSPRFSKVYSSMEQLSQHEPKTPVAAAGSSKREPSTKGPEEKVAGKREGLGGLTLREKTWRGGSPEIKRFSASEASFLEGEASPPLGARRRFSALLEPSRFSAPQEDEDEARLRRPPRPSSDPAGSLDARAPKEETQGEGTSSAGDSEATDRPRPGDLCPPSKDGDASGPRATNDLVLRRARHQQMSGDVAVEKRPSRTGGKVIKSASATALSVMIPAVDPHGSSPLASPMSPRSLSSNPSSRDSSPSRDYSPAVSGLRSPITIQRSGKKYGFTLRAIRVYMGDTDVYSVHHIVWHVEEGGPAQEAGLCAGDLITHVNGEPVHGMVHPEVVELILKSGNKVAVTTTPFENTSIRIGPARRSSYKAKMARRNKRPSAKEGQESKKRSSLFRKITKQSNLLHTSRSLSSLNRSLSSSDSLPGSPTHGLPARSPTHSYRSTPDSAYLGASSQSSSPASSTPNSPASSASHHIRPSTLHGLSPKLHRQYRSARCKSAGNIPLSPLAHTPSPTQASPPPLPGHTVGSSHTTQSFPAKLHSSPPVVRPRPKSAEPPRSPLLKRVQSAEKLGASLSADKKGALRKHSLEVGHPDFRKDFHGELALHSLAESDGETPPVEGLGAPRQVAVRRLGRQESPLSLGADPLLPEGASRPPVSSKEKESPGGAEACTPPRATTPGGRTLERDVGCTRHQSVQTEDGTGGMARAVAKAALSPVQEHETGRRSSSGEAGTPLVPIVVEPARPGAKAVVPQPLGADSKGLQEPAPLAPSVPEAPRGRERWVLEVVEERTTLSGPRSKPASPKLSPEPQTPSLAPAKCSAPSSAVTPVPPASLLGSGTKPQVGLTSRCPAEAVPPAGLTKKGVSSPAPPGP
T4 sequence (Q9UBF8 whole entry): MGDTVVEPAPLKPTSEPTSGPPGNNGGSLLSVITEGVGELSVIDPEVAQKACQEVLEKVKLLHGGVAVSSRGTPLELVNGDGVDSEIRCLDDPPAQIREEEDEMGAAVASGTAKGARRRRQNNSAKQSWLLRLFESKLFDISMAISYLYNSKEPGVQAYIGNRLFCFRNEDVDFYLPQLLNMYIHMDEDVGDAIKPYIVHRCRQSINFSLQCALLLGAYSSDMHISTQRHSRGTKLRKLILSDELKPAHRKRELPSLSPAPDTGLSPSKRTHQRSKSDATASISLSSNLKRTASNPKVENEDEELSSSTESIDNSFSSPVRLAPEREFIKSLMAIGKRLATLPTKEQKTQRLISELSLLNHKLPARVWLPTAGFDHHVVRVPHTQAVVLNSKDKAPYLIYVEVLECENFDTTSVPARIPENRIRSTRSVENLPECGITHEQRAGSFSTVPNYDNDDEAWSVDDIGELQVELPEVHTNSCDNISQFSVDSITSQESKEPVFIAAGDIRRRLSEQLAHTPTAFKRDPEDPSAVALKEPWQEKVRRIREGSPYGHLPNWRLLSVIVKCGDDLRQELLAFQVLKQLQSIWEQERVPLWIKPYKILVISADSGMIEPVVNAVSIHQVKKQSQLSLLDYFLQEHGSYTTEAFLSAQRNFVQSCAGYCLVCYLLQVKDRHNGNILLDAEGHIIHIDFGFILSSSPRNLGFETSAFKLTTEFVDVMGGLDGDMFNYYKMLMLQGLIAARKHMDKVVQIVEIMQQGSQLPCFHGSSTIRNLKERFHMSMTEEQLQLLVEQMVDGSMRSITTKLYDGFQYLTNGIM

Question: Which remaining binding (PHKG1) does the source give for `c1ccc2c(c1)Sc1ccccc1N2CCN1CCOCC1` [J54] here?
Answer: The remaining binding was 100%.

Question: And the remaining binding (PIK3CA(C420R))?
Answer: Its remaining binding is 88%.

Question: And the remaining binding (CAMK1D)?
Answer: Its remaining binding is 85%.

Question: What about the remaining binding (YANK3) of the same compound?
Answer: The remaining binding was 100%.

Question: And the remaining binding (STK36)?
Answer: Its remaining binding is 67%.

Question: What about the remaining binding (TLK2) of the same compound?
Answer: The remaining binding was 23%.

Question: And the remaining binding [1]?
Answer: The remaining binding was 97%.

Question: And the remaining binding (GRK7)?
Answer: Its remaining binding is 100%.

Question: What about the remaining binding (PYK2) of the same compound?
Answer: The remaining binding was 100%.

Question: And the remaining binding (NEK10)?
Answer: Its remaining binding is 97%.

Question: What about the remaining binding (PIK4CB) of the same compound?
Answer: Its remaining binding is 100%.

Question: And the remaining binding (FAK)?
Answer: Its remaining binding is 92%.

Question: What about the remaining binding (TXK) of the same compound?
Answer: The remaining binding was 99%.

Question: What about the remaining binding (RIOK1) of the same compound?
Answer: Its remaining binding is 59%.

Question: And the remaining binding (TRPM6)?
Answer: The remaining binding was 100%.

Question: And the remaining binding (DMPK)?
Answer: The remaining binding was 85%.

Question: And the remaining binding (NDR2)?
Answer: Its remaining binding is 100%.

Question: What about the remaining binding (MAST1) of the same compound?
Answer: The remaining binding was 100%.
